Test results as given in patent US12528815B2, “5-amino-8-(4-pyridyl)-[1,2,4]triazolo[4,3-c]pyrimidin-3-one compounds for use against cancer” (Nxera Pharma UK Limited, priority 2020, dated 2026).

Legend:
[1] = target: T1, human adenosine A2A receptor (Homo sapiens, UniProt P29274); test: Inhibition binding assay, human adenosine A2A receptor membranes, [3H]ZM241385; conditions: 1 nM [3H]ZM241385, HEK293-hA2A membranes, 25° C., 1 h; IC50 converted to Ki with Cheng-Prusoff; read-out: A2A pKi (converted)
T1 construct: expressed in transfected cells; host or cells: HEK293 cells infected with BacMam
Procedure, shortened: (§1)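 Membranes from BacMam-infected HEK293 cells (0.2 μg A2A, 1.4 μg A1) incubated 1 h at 25° C with test compound and 1 nM [3H]ZM241385 (A2A; 50 mM Tris-HCl pH 7.4) or [3H]DPCPX (A1; plus 100 mM NaCl, 10 mM MgCl2). Nonspecific: 1 μM CGS15943 or DPCPX. Filtration, scintillation; IC50 converted to Ki via Cheng-Prusoff.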

[2] = target: T2, human adenosine A1 receptor (Homo sapiens, UniProt P30542); test: Inhibition binding assay, human adenosine A1 receptor membranes, [3H]DPCPX; conditions: 1 nM [3H]DPCPX, 25° C., 1 h; IC50 converted to Ki with Cheng-Prusoff; read-out: A1 pKi (converted)
T2 construct: expressed in transfected cells; host or cells: HEK293 cells infected with BacMam (the same paragraph also labels the preparation CHO-hA1)
T2 sequence (P30542 1-326): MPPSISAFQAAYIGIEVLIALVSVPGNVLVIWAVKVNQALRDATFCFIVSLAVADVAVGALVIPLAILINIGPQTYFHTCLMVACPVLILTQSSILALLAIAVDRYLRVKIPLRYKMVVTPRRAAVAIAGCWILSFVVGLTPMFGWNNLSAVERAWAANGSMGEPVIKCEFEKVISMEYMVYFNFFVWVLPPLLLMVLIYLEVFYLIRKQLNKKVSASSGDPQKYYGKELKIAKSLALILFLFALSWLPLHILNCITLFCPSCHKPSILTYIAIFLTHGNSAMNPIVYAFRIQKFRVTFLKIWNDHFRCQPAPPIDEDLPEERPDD
Procedure, shortened: as §1

human CB1 receptor = target: T3, human CB1 receptor (Homo sapiens, UniProt P21554); test: CB1 receptor antagonism, agonist-induced cAMP modulation (HTRF) in transfected CHO cells; type: cell-based; conditions: read-out: Antag IC50
T3 construct: expressed in transfected cells; host or cells: CHO cells
Description: Receptor antagonism: Evaluation of the antagonist activity of compounds at the human CB1 receptor expressed in transfected CHO cells, determined by measuring their effects on agonist-induced cAMP modulation using the HTRF detection method.
Thereafter, the reference agonist CP 55940 and the adenylyl cyclase activator NKH 477 are added at respective final concentrations of 3 nM and 3 μM.
For basal control measurements, CP 55940 is omitted from the wells containing 3 μM AM 281.
Following 20 min incubation at 37° C., the cells are lysed and the fluorescence acceptor (D2-labeled cAMP) and fluorescence donor (anti-cAMP antibody labeled with europium cryptate) are added.
After 60 min at room temperature, the fluorescence transfer is measured at λex=337 nm and λem=620 and 665 nm using a microplate reader (Rubystar, BMG). The cAMP concentration is determined by dividing the signal measured at 665 nm by that measured at 620 nm (ratio).
The standard reference antagonist is AM 281, which is tested in each experiment at several concentrations to generate a concentration-response curve from which its IC50 value is calculated.

[3] = target: T4, human CB-1 cannabinoid receptor (Homo sapiens, UniProt P21554); test: CB1 receptor radioligand binding assay, [3H]CP 55940, transfected CHO cell membranes; conditions: 0.5 nM [3H]CP 55940, CHO membrane homogenates, 120 min at 37° C.
T4 construct: expressed in transfected cells; host or cells: CHO cells
Description: Nonspecific binding is determined in the presence of 10 μM WIN 55212-2.
Following incubation, the samples are filtered rapidly under vacuum through glass fiber filters (GF/B, Packard) presoaked with 0.3% PEI and rinsed several times with an ice-cold buffer containing 50 mM Tris-HCl (pH 7.4) and 0.5% BSA using a 96-sample cell harvester (Unifilter, Packard). The filters are dried then counted for radioactivity in a scintillation counter (Topcount, Packard) using a scintillation cocktail (Microscint 0, Packard).
The standard reference compound is CP 55940 which is tested in each experiment at several concentrations to obtain a competition curve from which its IC50 is calculated.

T4 sequence (P21554 whole entry): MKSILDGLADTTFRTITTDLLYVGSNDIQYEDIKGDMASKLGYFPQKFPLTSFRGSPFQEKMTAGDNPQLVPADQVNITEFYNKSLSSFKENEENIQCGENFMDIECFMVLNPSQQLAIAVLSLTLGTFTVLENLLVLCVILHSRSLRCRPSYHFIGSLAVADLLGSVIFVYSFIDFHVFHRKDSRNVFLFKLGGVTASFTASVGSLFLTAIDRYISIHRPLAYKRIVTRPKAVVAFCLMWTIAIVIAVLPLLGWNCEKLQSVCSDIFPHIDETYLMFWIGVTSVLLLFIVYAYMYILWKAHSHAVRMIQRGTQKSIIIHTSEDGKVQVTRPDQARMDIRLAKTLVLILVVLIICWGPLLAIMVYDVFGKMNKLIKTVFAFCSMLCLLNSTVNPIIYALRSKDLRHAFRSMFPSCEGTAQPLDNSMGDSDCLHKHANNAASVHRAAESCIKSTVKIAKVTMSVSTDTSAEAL
T3 sequence (P21554 whole entry): as above
T1 sequence (P29274 whole entry): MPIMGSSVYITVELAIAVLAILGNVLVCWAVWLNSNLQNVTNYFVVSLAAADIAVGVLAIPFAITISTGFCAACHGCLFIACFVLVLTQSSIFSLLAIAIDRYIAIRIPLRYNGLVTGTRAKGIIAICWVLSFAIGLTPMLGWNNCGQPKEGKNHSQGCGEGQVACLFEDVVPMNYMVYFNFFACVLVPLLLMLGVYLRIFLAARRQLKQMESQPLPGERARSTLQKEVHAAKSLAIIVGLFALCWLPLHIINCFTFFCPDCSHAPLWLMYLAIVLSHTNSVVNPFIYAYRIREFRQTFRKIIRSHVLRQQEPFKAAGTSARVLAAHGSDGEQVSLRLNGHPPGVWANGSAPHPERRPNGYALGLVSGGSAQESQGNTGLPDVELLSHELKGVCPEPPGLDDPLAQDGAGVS

Cc1cc(-c2c(-c3ccccc3)nc(N)n3c(=O)n(CC45C6C7C4C4C5C6C74F)nc23)cc(CO)n1 (stereo not drawn) [Example 2-60, 5-amino-2-[(4-fluorocuban-1-yl)methyl]-8-[2-(hydroxymethyl)-6-methyl-4-pyridyl]-7-phenyl-[1,2,4]triazolo[4,3-c]pyrimidin-3-one]
Ki [1]: 7.94 nM
Ki [2]: 200 nM
IC50 (human CB1 receptor): 2.4 µM
Ki [3]: 14.6 µM

Cc1cc(-c2c(-c3ccccc3)nc(N)n3c(=O)n(Cc4ccc(F)cn4)nc23)cc(C)n1 [Example 1-2, 5-amino-8-(2,6-dimethyl-4-pyridyl)-2-[(5-fluoro-2-pyridyl)methyl]-7-phenyl-[1,2,4]triazolo[4,3-c]pyrimidin-3-one]
Ki [1]: 0.794 nM
Ki [2]: 316 nM
IC50 (human CB1 receptor): > 4.9 µM
Ki [3]: 20.1 µM

Cc1cc(-c2c(-c3ccccc3)nc(N)n3c(=O)n(Cc4ccc(F)cn4)nc23)cc(N2CCC2)n1 [Example 1-75, 5-amino-8-[2-(azetidin-1-yl)-6-methyl-4-pyridyl]-2-[(5-fluoro-2-pyridyl)methyl]-7-phenyl-[1,2,4]triazolo[4,3-c]pyrimidin-3-one]
Ki [1]: 3.16 nM
Ki [2]: 126 nM
IC50 (human CB1 receptor): 17.9 µM
Ki [3]: 39.1 µM

Cc1ccc(Cn2nc3c(-c4cc(C)nc(CO)c4)c(-c4ccccc4)nc(N)n3c2=O)nc1 [Example 1-52, 5-amino-8-[2-(hydroxymethyl)-6-methyl-4-pyridyl]-2-[(5-methyl-2-pyridyl)methyl]-7-phenyl-[1,2,4]triazolo[4,3-c]pyrimidin-3-one]
Ki [1]: 0.631 nM
Ki [2]: 501 nM
IC50 (human CB1 receptor): 39.4 µM
Ki [3]: 46.1 µM

Cc1cc(-c2c(-c3ccccc3)nc(N)n3c(=O)n(CCC(F)(F)F)nc23)cc(C)n1 [Example 2-6, 5-amino-8-(2,6-dimethyl-4-pyridyl)-7-phenyl-2-(3,3,3-trifluoropropyl)-[1,2,4]triazolo[4,3-c]pyrimidin-3-one]
Ki [1]: 2 nM
Ki [2]: 501 nM
IC50 (human CB1 receptor): 26.5 µM
Ki [3]: 22 µM

Cc1cc(-c2c(-c3ccc(F)cc3)nc(N)n3c(=O)n(Cc4cccnn4)nc23)cc(C)n1 [Example 1-41, 5-amino-8-(2,6-dimethyl-4-pyridyl)-7-(4-fluorophenyl)-2-(pyridazin-3-ylmethyl)-[1,2,4]triazolo[4,3-c]pyrimidin-3-one]
Ki [1]: 2.51 nM
Ki [2]: 398 nM
IC50 (human CB1 receptor): 43.1 µM
Ki [3]: 45.6 µM
